# Reference: US11564969B2, “Immunorhelin compounds for intracellular infections” (ISR IMMUNE SYSTEM REGULATION HOLDING AB (PUBL), priority 2017, dated 2023)
# Square brackets hold non-standard residues; d marks the D form. Peptide text beside a SMILES is read from it. dHis(τ-Bn) = N[C@H](Cc1cn(Cc2ccccc2)cn1)C(=O)O; d2Nal = N[C@H](Cc1ccc2ccccc2c1)C(=O)O; pGlu = O=C1CC[C@@H](C(=O)O)N1
# Columns and labels:
# [1] = Solubility analysis in PBS (Analysis Method B); format: physicochemical; details: pH 7.4
# Description: The solubility of compounds of the invention was tested as described in the general methods. Solubility was then graded according to a rating between 1 to 5, where 1 is most soluble and 5 is least soluble.
# GnRHR = target: T1, GnRHR (Homo sapiens, UniProt P30968); details: 1000.0
# T1 sequence (P30968 1-328): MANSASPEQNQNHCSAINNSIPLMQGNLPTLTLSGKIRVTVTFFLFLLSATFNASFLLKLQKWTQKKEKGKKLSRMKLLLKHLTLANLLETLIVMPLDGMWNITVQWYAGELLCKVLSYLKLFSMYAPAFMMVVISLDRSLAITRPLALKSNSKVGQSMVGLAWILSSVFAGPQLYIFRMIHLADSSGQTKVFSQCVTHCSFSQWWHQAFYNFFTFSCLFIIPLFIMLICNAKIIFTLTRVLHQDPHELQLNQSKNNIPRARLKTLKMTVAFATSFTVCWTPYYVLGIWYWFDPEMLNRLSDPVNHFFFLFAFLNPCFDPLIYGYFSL
Structure (SMILES),Solubility grading [1],GNRHR Stimulation at 1 μM (GnRHR)
"CC(C)C[C@H](NC(=O)[C@@H](Cc1ccc2ccccc2c1)NC(=O)[C@H](Cc1ccc(O)cc1)NC(=O)[C@H](CO)NC(=O)[C@H](Cc1c[nH]c2ccccc12)NC(=O)[C@H](Cc1c[nH]cn1)NC(=O)[C@@H]1CCC(=O)N1)C(=O)N[C@@H](Cc1ccc(O)cc1)C(=O)N1CCC[C@H]1C(=O)NCC(N)=O [Compound 25, pGlu-His-Trp-Ser-Tyr-D-Nal-Leu-Tyr-Pro-Gly-amide] ([pGlu]HWSY[d2Nal]LYPG-NH2)",4,82 percentage
"N=C(N)NCCC[C@H](NC(=O)[C@H](Cc1c[nH]c2ccccc12)NC(=O)[C@@H](Cc1ccc2ccccc2c1)NC(=O)[C@H](Cc1c[nH]cn1)NC(=O)[C@H](CO)NC(=O)[C@H](Cc1c[nH]c2ccccc12)NC(=O)[C@H](Cc1c[nH]cn1)NC(=O)[C@@H]1CCC(=O)N1)C(=O)N1CCC[C@H]1C(=O)NCC(N)=O [Compound 27, pGlu-His-Trp-Ser-His-D-Nal-Trp-Arg-Pro-Gly-amide] ([pGlu]HWSH[d2Nal]WRPG-NH2)",1,108 percentage
"CC(C)C[C@H](NC(=O)[C@@H](Cc1ccc2ccccc2c1)NC(=O)[C@H](Cc1c[nH]cn1)NC(=O)[C@H](CO)NC(=O)[C@H](Cc1c[nH]c2ccccc12)NC(=O)[C@H](Cc1c[nH]cn1)NC(=O)[C@@H]1CCC(=O)N1)C(=O)N[C@@H](Cc1ccc(O)cc1)C(=O)N1CCC[C@H]1C(=O)NCC(N)=O [Compound 28, pGlu-His-Trp-Ser-His-D-Nal-Leu-Tyr-Pro-Gly-amide] ([pGlu]HWSH[d2Nal]LYPG-NH2)",2,95 percentage
"NC(=O)CNC(=O)[C@@H]1CCCN1C(=O)[C@H](Cc1ccc(O)cc1)NC(=O)[C@H](Cc1c[nH]c2ccccc12)NC(=O)[C@@H](Cc1ccc2ccccc2c1)NC(=O)[C@H](Cc1ccc(O)cc1)NC(=O)[C@H](CO)NC(=O)[C@H](Cc1c[nH]c2ccccc12)NC(=O)[C@H](Cc1c[nH]cn1)NC(=O)[C@@H]1CCC(=O)N1 [Compound 30, pGlu-His-Trp-Ser-Tyr-D-Nal-Trp-Tyr-Pro-Gly-amide] ([pGlu]HWSY[d2Nal]WYPG-NH2)",1,12 percentage
"NC(=O)CNC(=O)[C@@H]1CCCN1C(=O)[C@H](Cc1ccc(O)cc1)NC(=O)[C@H](Cc1c[nH]c2ccccc12)NC(=O)[C@@H](Cc1ccc2ccccc2c1)NC(=O)[C@H](Cc1c[nH]cn1)NC(=O)[C@H](CO)NC(=O)[C@H](Cc1c[nH]c2ccccc12)NC(=O)[C@H](Cc1c[nH]cn1)NC(=O)[C@@H]1CCC(=O)N1 [Compound 33, pGlu-His-Trp-Ser-His-D-Nal-Trp-Tyr-Pro-Gly-amide] ([pGlu]HWSH[d2Nal]WYPG-NH2)",2,67 percentage
"CCNC(=O)[C@@H]1CCCN1C(=O)[C@H](CCCNC(=N)N)NC(=O)[C@H](CC(C)C)NC(=O)[C@@H](CC(C)C)NC(=O)[C@H](Cc1c[nH]cn1)NC(=O)[C@H](CO)NC(=O)[C@H](Cc1c[nH]c2ccccc12)NC(=O)[C@H](Cc1c[nH]cn1)NC(=O)[C@@H]1CCC(=O)N1 [Compound 42, pGlu-His-Trp-Ser-His-D-Leu-Leu-Arg-Pro-NHEt] ([pGlu]HWSH[dL]LRP-NHEt)",1,102 percentage
"CCNC(=O)[C@@H]1CCCN1C(=O)[C@H](CCCNC(=N)N)NC(=O)[C@H](Cc1c[nH]c2ccccc12)NC(=O)[C@@H](CC(C)C)NC(=O)[C@H](Cc1ccc(O)cc1)NC(=O)[C@H](CO)NC(=O)[C@H](Cc1c[nH]c2ccccc12)NC(=O)[C@H](Cc1c[nH]cn1)NC(=O)[C@@H]1CCC(=O)N1 [Compound 44, pGlu-His-Trp-Ser-Tyr-D-Leu-Trp-Arg-Pro-NHEt] ([pGlu]HWSY[dL]WRP-NHEt)",2,111 percentage
"CCNC(=O)[C@@H]1CCCN1C(=O)[C@H](Cc1ccc(O)cc1)NC(=O)[C@H](CC(C)C)NC(=O)[C@@H](CC(C)C)NC(=O)[C@H](Cc1ccc(O)cc1)NC(=O)[C@H](CO)NC(=O)[C@H](Cc1c[nH]c2ccccc12)NC(=O)[C@H](Cc1c[nH]cn1)NC(=O)[C@@H]1CCC(=O)N1 [Compound 45, pGlu-His-Trp-Ser-Tyr-D-Leu-Leu-Tyr-Pro-NHEt] ([pGlu]HWSY[dL]LYP-NHEt)",2,105 percentage
"CCNC(=O)[C@@H]1CCCN1C(=O)[C@H](CCCNC(=N)N)NC(=O)[C@H](Cc1c[nH]c2ccccc12)NC(=O)[C@@H](CC(C)C)NC(=O)[C@H](Cc1c[nH]cn1)NC(=O)[C@H](CO)NC(=O)[C@H](Cc1c[nH]c2ccccc12)NC(=O)[C@H](Cc1c[nH]cn1)NC(=O)[C@@H]1CCC(=O)N1 [Compound 47, pGlu-His-Trp-Ser-His-D-Leu-Trp-Arg-Pro-NHEt] ([pGlu]HWSH[dL]WRP-NHEt)",1,119 percentage
"CCNC(=O)[C@@H]1CCCN1C(=O)[C@H](Cc1ccc(O)cc1)NC(=O)[C@H](CC(C)C)NC(=O)[C@@H](CC(C)C)NC(=O)[C@H](Cc1c[nH]cn1)NC(=O)[C@H](CO)NC(=O)[C@H](Cc1c[nH]c2ccccc12)NC(=O)[C@H](Cc1c[nH]cn1)NC(=O)[C@@H]1CCC(=O)N1 [Compound 48, pGlu-His-Trp-Ser-His-D-Leu-Leu-Tyr-Pro-NHEt] ([pGlu]HWSH[dL]LYP-NHEt)",2,118 percentage
"CCNC(=O)[C@@H]1CCCN1C(=O)[C@H](Cc1ccc(O)cc1)NC(=O)[C@H](Cc1c[nH]c2ccccc12)NC(=O)[C@@H](CC(C)C)NC(=O)[C@H](Cc1ccc(O)cc1)NC(=O)[C@H](CO)NC(=O)[C@H](Cc1c[nH]c2ccccc12)NC(=O)[C@H](Cc1c[nH]cn1)NC(=O)[C@@H]1CCC(=O)N1 [Compound 49, pGlu-His-Trp-Ser-Tyr-D-Leu-Trp-Tyr-Pro-NHEt] ([pGlu]HWSY[dL]WYP-NHEt)",4,77 percentage
"CCNC(=O)[C@@H]1CCCN1C(=O)[C@H](Cc1ccc(O)cc1)NC(=O)[C@H](Cc1c[nH]c2ccccc12)NC(=O)[C@@H](CC(C)C)NC(=O)[C@H](Cc1c[nH]cn1)NC(=O)[C@H](CO)NC(=O)[C@H](Cc1c[nH]c2ccccc12)NC(=O)[C@H](Cc1c[nH]cn1)NC(=O)[C@@H]1CCC(=O)N1 [Compound 50, pGlu-His-Trp-Ser-His-D-Leu-Trp-Tyr-Pro-NHEt] ([pGlu]HWSH[dL]WYP-NHEt)",1,105 percentage
"CCNC(=O)[C@@H]1CCCN1C(=O)[C@H](CCCNC(=N)N)NC(=O)[C@H](CC(C)C)NC(=O)[C@@H](Cc1cn(Cc2ccccc2)cn1)NC(=O)[C@H](Cc1c[nH]cn1)NC(=O)[C@H](CO)NC(=O)[C@H](Cc1c[nH]c2ccccc12)NC(=O)[C@H](Cc1c[nH]cn1)NC(=O)[C@@H]1CCC(=O)N1 [Compound 56, pGlu-His-Trp-Ser-His-D-Bhi-Leu-Arg-Pro-NHEt] ([pGlu]HWSH[dHis(τ-Bn)]LRP-NHEt)",1,96 percentage
"CCNC(=O)[C@@H]1CCCN1C(=O)[C@H](Cc1ccc(O)cc1)NC(=O)[C@H](CC(C)C)NC(=O)[C@@H](Cc1cn(Cc2ccccc2)cn1)NC(=O)[C@H](Cc1ccc(O)cc1)NC(=O)[C@H](CO)NC(=O)[C@H](Cc1c[nH]c2ccccc12)NC(=O)[C@H](Cc1c[nH]cn1)NC(=O)[C@@H]1CCC(=O)N1 [Compound 59, pGlu-His-Trp-Ser-Tyr-D-Bhi-Leu-Tyr-Pro-NHEt] ([pGlu]HWSY[dHis(τ-Bn)]LYP-NHEt)",4,85 percentage
"CCNC(=O)[C@@H]1CCCN1C(=O)[C@H](CCCNC(=N)N)NC(=O)[C@H](Cc1c[nH]c2ccccc12)NC(=O)[C@@H](Cc1cn(Cc2ccccc2)cn1)NC(=O)[C@H](Cc1c[nH]cn1)NC(=O)[C@H](CO)NC(=O)[C@H](Cc1c[nH]c2ccccc12)NC(=O)[C@H](Cc1c[nH]cn1)NC(=O)[C@@H]1CCC(=O)N1 [Compound 60, pGlu-His-Trp-Ser-His-D-Bhi-Trp-Arg-Pro-NHEt] ([pGlu]HWSH[dHis(τ-Bn)]WRP-NHEt)",2,102 percentage
"CCNC(=O)[C@@H]1CCCN1C(=O)[C@H](Cc1ccc(O)cc1)NC(=O)[C@H](CC(C)C)NC(=O)[C@@H](Cc1cn(Cc2ccccc2)cn1)NC(=O)[C@H](Cc1c[nH]cn1)NC(=O)[C@H](CO)NC(=O)[C@H](Cc1c[nH]c2ccccc12)NC(=O)[C@H](Cc1c[nH]cn1)NC(=O)[C@@H]1CCC(=O)N1 [Compound 61, pGlu-His-Trp-Ser-His-D-Bhi-Leu-Tyr-Pro-NHEt] ([pGlu]HWSH[dHis(τ-Bn)]LYP-NHEt)",3,112 percentage
"CCNC(=O)[C@@H]1CCCN1C(=O)[C@H](Cc1ccc(O)cc1)NC(=O)[C@H](Cc1c[nH]c2ccccc12)NC(=O)[C@@H](Cc1cn(Cc2ccccc2)cn1)NC(=O)[C@H](Cc1ccc(O)cc1)NC(=O)[C@H](CO)NC(=O)[C@H](Cc1c[nH]c2ccccc12)NC(=O)[C@H](Cc1c[nH]cn1)NC(=O)[C@@H]1CCC(=O)N1 [Compound 62, pGlu-His-Trp-Ser-Tyr-D-Bhi-Trp-Tyr-Pro-NHEt] ([pGlu]HWSY[dHis(τ-Bn)]WYP-NHEt)",5,77 percentage
"CCNC(=O)[C@@H]1CCCN1C(=O)[C@H](Cc1ccc(O)cc1)NC(=O)[C@H](Cc1c[nH]c2ccccc12)NC(=O)[C@@H](Cc1cn(Cc2ccccc2)cn1)NC(=O)[C@H](Cc1c[nH]cn1)NC(=O)[C@H](CO)NC(=O)[C@H](Cc1c[nH]c2ccccc12)NC(=O)[C@H](Cc1c[nH]cn1)NC(=O)[C@@H]1CCC(=O)N1 [Compound 63, pGlu-His-Trp-Ser-His-D-Bhi-Trp-Tyr-Pro-NHEt] ([pGlu]HWSH[dHis(τ-Bn)]WYP-NHEt)",5,77 percentage
